Laboratory results reported in patent publication US11324743B2, “Treatment for the non alcoholic steatohepatitis and fibrosis” (METABOLYS, priority 2016, dated 2022).

Assays:
NASH mice (STAM model) [1] = test: In vivo study 2 to assess effects on fibrosis (STAM model); set-up: species or system C57BL/6 mice
Description: (§1) The study was made on STAM model.
(§2) Pathogen-free fourteen day-pregnant C57BL/6 mice have been obtained from Japan SLC, Inc. (Japan). NASH has been established in male mice by a single subcutaneous injection of streptozotocin (Sigma, USA) after birth and feeding with a high fat diet (CLEA Japan, Japan) ad libitum after four weeks of age (day 28±2). Mice have been randomized into three groups of ten mice at six weeks of age (day 42±2), and three groups of ten mice at nine weeks of age (day 63±2), in the days before the start of treatment. Individual body weights have been measured daily during the treatment period. Food consumption has been measured twice per week during the treatment period. Survival, clinical signs and behavior of mice have been monitored daily.
The fibrosis in vivo study had 3 arms:
(§3) Group 1 (Vehicle): Ten NASH mice have been orally administered the same vehicle (0.5% methyl cellulose in water) as the mice receiving compound (1).
Group 2 (Telmisartan): Five mice have been administered the same vehicle supplemented with Telmisartan at a dose of 100 mg/kg (in 0.5% methyl cellulose in water) once daily from nine to twelve (9 to 12) weeks of age.
Group 3 (compound (1)): Ten NASH mice have been orally administered vehicle supplemented with compound (1) at a dose of 100 mg/kg (in 0.5% methyl cellulose in water) once daily from nine to twelve (9 to 12) weeks of age. The assessed parameters and histological outcome measures are described below.
(§4) The following measurements have been conducted for both in vivo studies: • Individual liver weight • Individual body weight • Plasma ALT (Alanine AminoTransferase), AST (Aspartate AminoTransferase), triglyceride, and total cholesterol have been measured by FUJI DRI-CHEM (Fujifilm, Japan) • Liver triglyceride has been quantified by Triglyceride E-test kit (Wako, Japan) • Histological analyses for liver sections (according to routine methods) • HE (Hematoxylin Eosin) staining and estimation of NAFLD Activity score (NAS) […]

NASH mice (STAM model) [2] = test: In vivo study 1 to assess effects on NASH (STAM model); set-up: species or system C57BL/6 mice
Description: as §1, §2
The NASH in vivo study had 3 arms:
as §3
Group 2 (Telmisartan): Five mice have been administered the same vehicle supplemented with Telmisartan at a dose of 100 mg/kg (in 0.5% methyl cellulose in water) once daily from six to nine (6 to 9) weeks of age.
Group 3 (compound (1)): Ten NASH mice have be orally administered vehicle supplemented with compound (1) at a dose of 100 mg/kg (in 0.5% methyl cellulose in water) once daily from six to nine (6 to 9) weeks of age. The assessed parameters and histological outcome measures are described below.
as §4

STAM animal model = details: reference compound; cited from earlier work

O=C(O)CCC(=O)c1ccc(OCCN2CCN(c3ccccn3)CC2)cc1 [Compound (1)]
amount of liver triglycerides (TG) (NASH mice (STAM model) [1]; 100 mg/kg orally once daily from 9 to 12 weeks of age (FIG. 2)): reduction | amount of plasma triglycerides (TG) (NASH mice (STAM model) [1]; 100 mg/kg orally once daily from 9 to 12 weeks of age (FIG. 3), effect especially in study 2): reduction | NAFLD activity score (NAS) (NASH mice (STAM model) [1]; 100 mg/kg orally once daily from 9 to 12 weeks of age, in comparison to both vehicle and Telmisartan): significant reduction | amount of liver triglycerides (TG) (NASH mice (STAM model) [2]; 100 mg/kg orally once daily from 6 to 9 weeks of age (FIG. 2)): reduction | amount of plasma triglycerides (TG) (NASH mice (STAM model) [2]; 100 mg/kg orally once daily from 6 to 9 weeks of age (FIG. 3)): reduction | NAFLD activity score (NAS) (NASH mice (STAM model) [2]; 100 mg/kg orally once daily from 6 to 9 weeks of age, in comparison to both vehicle and Telmisartan): significant reduction

CCCc1nc2c(C)cc(-c3nc4ccccc4n3C)cc2n1Cc1ccc(-c2ccccc2C(=O)O)cc1 [Telmisartan]
activity to treat NASH and fibrosis (STAM animal model): active
